We go through two molecules from patent publication US9507284B2, “Electrophotographic photoreceptor, electrophotographic photoreceptor cartridge, image-forming apparatus, and triarylamine compound” (MITSUBISHI CHEMICAL CORPORATION, priority 2012, dated 2016).

This series can be described thus: Storage Stability Test (coating fluid). The conditions noted are these: charge transport layer coating fluid (60 parts substance, 100 parts polycarbonate PD, tetrahydrofuran/toluene 8/2) stored at −5 to 0° C. for 2 months, checked for turbidity. Also noted: key: Excellent: Turbidity or the like derived from crystal precipitation is not present even after storage of coating fluid; Bad: Turbidity or the like derived from precipitation of the charge transport substance is present after storage of coating fluid. The class given is physicochemical. As to the method: As the binder resin, the polycarbonate resin (Mv=39,200) having a repeating unit represented by the structural formula (PD) was used. Then, 60 parts by mass of the charge transport substance, 100 parts by mass of the binder resin, 2 parts by mass of an antioxidant having a structure represented by the following formula (AOX2), and 0.05 parts by mass of a silicone oil as a leveling agent were dissolved in 540 parts by mass of a mixed solvent of tetrahydrofuran/toluene (mass ratio: 8/2) to prepare a charge transport layer coating fluid for coating fluid storage stability test.
The coating fluid obtained was placed in a glass sealed bottle and stored under the condition of −5 to 0° C. for 2 months. Then, it was checked whether turbidity or the like occurred or not in the coating fluid after storage, thereby evaluating the coating fluid storage stability.
The charge transport substances used in evaluation, the results of stability evaluation, and the criteria for the coating fluid stability are shown in the following Table-6.

Each structure is given as a SMILES string.

Turning to `CCOc1ccc(N(c2ccc(/C=C/c3ccc(N(c4ccc(C)cc4)c4ccc(C)cc4)cc3)cc2)c2ccc(/C=C/c3ccc(N(c4ccc(C)cc4)c4ccc(C)cc4)cc3)cc2)cc1` [CTM1], the Storage stability entry is recorded as “Excellent”. Then `Cc1ccc(N(c2ccc(C)cc2)c2ccc(/C=C/c3ccc(N(c4ccc(C)cc4)c4ccc(/C=C/c5ccc(N(c6ccc(C)cc6)c6ccc(C)cc6)cc5)cc4)cc3)cc2)cc1` [RCTM1], with “Bad”.
